Measured values reported in patent US9107852B2, “Uses of agonists of delta opioid receptor in cosmetic and dermocosmetic field” (Induchem Holding AG, priority 2012, dated 2015).
Ends that are not written are not given here.

Assays:
[1] = target: T1, delta2 opioid receptor (Mus musculus, UniProt P32300); assay: Agonist effect at the delta2 opioid receptor (DOP), cell impedance; format: cell-based
T1 construct: host or cells: unnamed cells 'bearing the delta2 opioid receptor'
Description: Frozen spinach leaves were thawed and disrupted in fine particles a blender. This juice was further treated with ultrasounds to disrupt cells and proteins were recovered by acidic precipitation. These proteins were then digested by several enzymes, including pepsin and papain. The hydrolysate was purified (ultrafiltration), fractionated and stored before testing. Meanwhile, synthetic peptides were ordered from a manufacturer. The peptides and the hydrolysates were tested on cells bearing the delta2 opioid receptor and cell impedance was measured to evaluate the binding activity of the tested compounds (Law and Loh, 1993).
The EC50 values (concentration producing a half-maximal specific response) and IC50 values (concentration causing a half-maximal inhibition of the control specific agonist response) were determined by non-linear regression analysis of the concentration-response curves generated with mean replicate values using Hill equation curve fitting (Y=D+[(A D)/(1+(C/C50)nH)], where Y=specific response, D=minimum specific response, A=maximum specific response, C=compound concentration, and C50=EC50 or IC50, and nH=slope factor).

[2] = test system: opioid receptor delta (DOR); assay: Scoring of DOR1 expression in RHE stimulated with cytokines; format: cell-based, human; conditions: JAK inhibitor I tested at 10 μM
Description: In the present study, the effects of a peptide (YPLDLF, SEQ ID No 1) on the expression of opioid receptor delta (DOR) were researched on a reconstructed human epidermis (RHE) model under basal or stimulated conditions. More precisely, the RHE were stimulated by a mix of cytokines (IL-17+OSM+TNF-α) able to induce a strong inflammatory profile and a psoriatic phenotype in keratinocytes.
Reconstructed human epidermis (RHE) of 11 days old was prepared according to a derived method described by Poumay et al. (2004). These RHE were cultivated at 37° C. and 5% of CO2 in a specific maintenance medium.
The RHE treated under basal conditions were placed in assay medium containing or not (non-stimulated control) the peptide solutions and incubated for 54 hours. For inflammatory conditions, the RHE were placed in assay medium containing or not (stimulated control) the peptide solutions or the reference […] at 10 μM) and pre-incubated for 6 hours. The RHE were then stimulated with a mix of cytokines (IL-17+OSM+TNF-α at 3 ng/ml) and incubated for 48 hours. All experimental conditions were performed in n=3.
At the end of incubation, the supernatants were collected and the RHE were washed in phosphate buffered saline solution (PBS) for immunohistofluorescence analysis. […]

[3] = test system: human skin explants; assay: Pro-pigmentation on human skin explants; format: cell-based; conditions: within 6 days, 0.3 and 3 PPM
Description: This study aims to explore the pro pigmenting activity of an ingredient (peptide YPLDLF, SEQ ID No 1) on human skin explants maintained in survival.
The activity of the product was evaluated by: • histological expertise of general morphology of the skin after Masson trichrome staining, • a visualization of melanin by a silver impregnation. • Immunostaining of Melan-A
Skin explants with a diameter of 10 mm were prepared from plastic surgery skin sample from a person. The explants were placed in survival in a specific growth medium at 37° C. in a humid atmosphere enriched with 5% CO2.
The peptide solutions (at 0.3 PPM or 3 PPM) were applied topically for 2 hours every day using a filter paper discs presoaked in 30 μl of each solution.
At D0, a T0 lot of the explants were removed and cut in half. One half was fixed in buffered formalin and the other half was frozen at −80° C. […]
The melanin was visualized by silver impregnation according to the technique of Masson Fontana variant. Labeled melanin has been evaluated by microscopic examination.
The expression of melanin in the basal layers, was quantified by image analysis using the software Cell-D.
The cell nuclei were colored with a propidium iodide. Labeled Melan-A has been evaluated by microscopic examination and counting of melanocytes Melan-A positive and the results expressed per centimeter of epidermis.

[4] = percent of control specific agonist response (DPDPE)

T1 sequence (P32300 whole entry): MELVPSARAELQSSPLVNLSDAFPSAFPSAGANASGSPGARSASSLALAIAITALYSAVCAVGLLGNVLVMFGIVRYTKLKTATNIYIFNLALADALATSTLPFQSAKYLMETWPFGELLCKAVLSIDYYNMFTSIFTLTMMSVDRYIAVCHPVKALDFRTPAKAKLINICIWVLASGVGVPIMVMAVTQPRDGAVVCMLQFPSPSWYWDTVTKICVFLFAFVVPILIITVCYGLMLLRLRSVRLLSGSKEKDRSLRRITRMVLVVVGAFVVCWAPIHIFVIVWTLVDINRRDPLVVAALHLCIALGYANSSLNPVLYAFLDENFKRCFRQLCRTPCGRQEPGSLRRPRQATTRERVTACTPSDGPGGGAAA

## YPLDLF [YPLDLF]
[1]
  EC50: 3.9 µM
[1]; [4]
  A (Hill curve fit parameter): −8.3
  D (Hill curve fit parameter): 100.0
[2]
  inhibitory effect of the cytokine mix on OPRD1 expression: reversed
[3]
  production of pigment (melanin) in human skin: activate in a dose dependent manner
